Measured values: US20220348868A1, “METHOD OF PRODUCING SKIN-DERIVED PRECURSOR CELLS” (KAO CORPORATION, priority 2014, published 2022)

Test system: human iPS cell-derived neural crest stem cells
Experiment: Induction of differentiation from human iPS cell-derived neural crest stem cells to SKPs, observed by microphotograph
Format: cell-based
Settings: CHIR99021 added at 0.5 micromolar to 5 micromolars (tested 0, 0.1, 0.5, 3, 5 micromolar)
Protocol: Based on the method described in Nature protocols, 5, pp. 688-701 (2010) or Cell reports, 3, pp. 1140-1152 (2013), the iPS cells subjected to the passage culture in Test Example 1 were cultured in a culture medium prepared by adding noggin (catalog number: 6057-NG-100/CF, 500 ng/mL, manufactured by R&D Systems, Inc.) and/or SB431542 (catalog number: 1614, 10 micromolars, manufactured by TOCRIS Bioscience) to a hES medium (−) bFGF for 5 days to 2 weeks to induce differentiation from human iPS cells to neural crest stem cells. The above-described iPS cell-derived neural crest stem cells were cultured in a D-MEM/F12 medium (catalog number: 10565-018, manufactured by Life Technologies Corporation) containing B-27 supplement (catalog number: 17504-044, 2% by mass, manufactured by life Technologies Corporation), EGF (catalog number: 336-EG-200, 20 ng/mL, manufactured by R&D Systems, Inc.), bFGF (catalog number: 064-04541, 40 ng/mL, manufactured by Wako Pure Chemical Industries, Ltd.), penicillin/streptomycin (catalog number: 15140-122, 50U, 50 microgram/mL, manufactured by Life Technologies Corporation) and 0 micromolar to 5 micromolars of CHIR99021 (catalog number 13122, manufactured by Cayman Chemical Company). […]

## Cc1c[nH]c(-c2cnc(NCCNc3ccc(C#N)cn3)nc2-c2ccc(Cl)cc2Cl)n1 [CHIR99021]
After selective passage culture of SKPs, FIG. 2, P1
  amount of cells differentiated to SKPs, after passage culture (P1): a larger amount of the cells differentiated to SKPs grew
Culture 3 to 5 days, FIG. 2, P0
  amount of cells differentiated to SKPs, before passage culture (P0): a larger amount of the cells differentiated to SKPs was migrated in a peripheral area of the colony
